According to US9067892B2, “Spiroheterocyclic N-oxypiperidines as pesticides” (Syngenta Crop Protection, Inc., priority 2008, dated 2015):
Like-named read-outs stand apart in the source and are kept apart here.

How the values were obtained:
[1] = system: Myzus persicae (green peach aphid); assay: Example B14: drench activity against Myzus persicae in field soil, persistence, comparison with state of the art; format: in vivo; conditions: for mortality at 12.5 ppm: Myzus persicae, soil, pepper plants in field soil, read-out: Mortality (%) xx days after application (drench, systemic action, persistence)
Protocol: (§1) Six weeks old pepper plants cultivated in field soil are treated as drench application at various rates (mg a.i./liter soil). The same day, plants are infested with a mixed population of M. persicae and incubated in the greenhouse under optimal greenhouse conditions. Samples are assessed 7 days after infestation on mortality. Treated plants are re-infested 7, 14, 21 and 28 days after application. Evaluation is always done 7 days after infestation. Plants are also checked for damage (phytotoxicity), visual assessment being made using a 0-100% rating scale (100%=total damage to plant; 0%=no damage to plant).

[2] = system: pepper plants; conditions: in vivo
Protocol: as §1

[3] = system: Thrips Tabaci (onion thrips); assay: Example B3: Thrips tabaci, mixed population, feeding/residual contact activity, preventive; format: in vivo; conditions: foliar, 144 h, sunflower leaf discs sprayed, 6 days incubation, mortality
[4] = system: Tetranychus urticae (two-spotted spider mite); assay: Example B4: Tetranychus urticae, mixed population, feeding/residual contact activity, preventive; format: in vivo; conditions: foliar, 192 h, bean leaf discs sprayed, 8 days, egg, larval and adult mortality
From the text: Activity Against Tetranychus urticae (Two-Spotted Spider Mite) (Mixed Population, Feeding/Residual Contact Activity, Preventive) Bean leaf discs on agar in 24-well microtiter plates are sprayed with test solutions. […] 8 days later, discs are checked for egg mortality, larval mortality, and adult mortality.

[5] = system: Nilaparvata lugens (brown rice planthopper); assay: Example B8: Nilaparvata lugens, larvicide, feeding/contact; format: in vivo; conditions: rice seedlings sprayed, N3 nymphs, 6-12 days after treatment
Protocol: Activity Against Nilaparvata lugens (Brown Rice Planthopper) (Larvicide, Feeding/Contact) Rice seedlings are treated with the diluted test solutions in a spray chamber. After drying, they are infested with 20 N3 nymphs (2 replicates). 6-12 days after the treatment samples are checked for mortality, growth regulation, and effects on the F1 generation.

[6] = system: Aphis craccivora (cowpea aphid); assay: Example B10: Aphis craccivora, mixed population, systemic/feeding; format: in vivo; conditions: 144 h, roots of infested pea seedlings in test solution, 6 days, mortality
From the text: 6 days later, samples are checked for mortality.

[7] = system: Aphis craccivora (cowpea aphid); assay: Example B11: translaminar activity against Aphis craccivora; format: in vivo; conditions: 120 h, French bean leaves, aphids on lower side, upper side painted, 5 days, mortality
Protocol: Translaminar Activity Against Aphis craccivora (Cowpea Aphid) French bean leaves (Phaseolus vulgaris) are infested with about 20 mixed age individuals on the lower leaf side using clip cages. 1 day after the infestation, the upper side of the leaves is treated with the test solution by painting. 5 days later, samples are checked for mortality.

[8] = system: Myzus persicae (green peach aphid); assay: Example B13: drench activity against Myzus persicae; format: in vivo; conditions: 168 h, pea seedlings in field soil, 7 days after infestation, mortality
Protocol: Drench Activity Against Myzus persicae (Green Peach Aphid) Pea seedlings cultivated in field soil are treated as drench application and infested with a mixed population of M. persicae. 7 days after infestation, samples are checked for mortality.

[9] = system: Myzus persicae (green peach aphid); assay: Example B2: Myzus persicae, mixed population, systemic/feeding activity, curative; conditions: 144 h, read-out: activity
[10] = system: Myzus persicae (green peach aphid); assay: Example B1: Myzus persicae, mixed population, feeding/residual contact activity, preventive; conditions: foliar, 144 h, read-out: activity
[11] = system: Myzus persicae (green peach aphid); assay: Example B16: Myzus persicae on pepper plants, feeding/residual contact activity; format: in vivo; conditions: 144 h, infested pepper plants sprayed, 6 days after treatment, mortality, read-out: activity against Myzus persicae
[12] = system: Aphis craccivora (cowpea aphid); assay: Example B15: Aphis craccivora, mixed population, adjuvant effect, curative; format: in vivo; conditions: for Abbott's efficacy (%) against Aphis craccivora: 3 ppm, formulated as EC050, adjuvant 0.1% (v/v) where named, broad bean plants, 7 days after treatment
Protocol: One day after infestation, plants are treated with diluted test solutions of the compound formulated as EC050 in a spray chamber (4 replicates). […] Efficacy was calculated with the aid of Abbott's formula.

[13] = 0 days after application (infestation day; evaluated 7 days after infestation)
[14] = 14 days after application (re-infestation; evaluated 7 days after infestation)
[15] = 21 days after application (re-infestation; evaluated 7 days after infestation)
[16] = 28 days after application (re-infestation; evaluated 7 days after infestation)
[17] = 168 h, 7 days after application (re-infestation; evaluated 7 days after infestation)

| SMILES | mortality at 12.5 ppm [1, 13] | mortality at 12.5 ppm [1, 14] | mortality at 12.5 ppm [1, 15] | mortality at 12.5 ppm [1, 16] | mortality at 12.5 ppm [1, 17] | plant compatibility on pepper plants (in words) [2] | pest or weed control at 400 ppm [3] | pest or weed control at 400 ppm [4] | pest or weed control at 400 ppm [5] | pest or weed control at 400 ppm [6] | pest or weed control at 400 ppm [7] | pest or weed control at 25 ppm [8] | pest or weed control at 400 ppm [9] | pest or weed control at 400 ppm [10] | pest or weed control at 200 ppm [11] | insecticidal action on Myzus persicae (in words) ([1]; summary of Table B14, drench) | Abbott's efficacy (%) against Aphis craccivora ([12]; Table B15A) | Abbott's efficacy (%) against Aphis craccivora ([12]; Table B15B) | effect of adjuvants on insecticidal activity (in words) ([12]; summary of Tables B15A and B15B) |
| --- | --- | --- | --- | --- | --- | --- | --- | --- | --- | --- | --- | --- | --- | --- | --- | --- | --- | --- | --- |
| CCOC(=O)OC1=C(c2c(C)cc(C)cc2C)C(=O)NC12CCN(OC)CC2 [A18, reference compound] | 100% | 98% | 95% | 95% | 100% | damages these to an untolerable high extend |  |  |  |  |  |  |  |  |  |  |  |  |  |
| CCOC(=O)OC1=C(c2c(C)cc(C)cc2C)C(=O)N(COC)C12CCN(OC)CC2 [P1.3] |  |  |  |  |  |  | > 80% | > 80% | > 80% | > 80% | > 80% | > 80% | > 80% | > 80% |  |  |  |  |  |
| CON1CCC2(CC1)C(O)=C(c1c(C)cc(C)cc1C)C(=O)N2C [P2.2, 4-hydroxy-8-methoxy-1-methyl-3-(2,4,6-trimethyl-phenyl)-1,8-diaza-spiro[4.5]dec-3-en-2-one] |  |  |  |  |  |  | > 80% | > 80% | > 80% | > 80% | > 80% | > 80% | > 80% | > 80% | ≥ 80% |  |  |  |  |
| CCOC(=O)OC1=C(c2c(C)cc(C)cc2C)C(=O)N(COCCOC)C12CCN(OC)CC2 [P1.18] |  |  |  |  |  |  | > 80% | > 80% | > 80% | > 80% | > 80% | > 80% | > 80% | > 80% |  |  |  |  |  |
| COCN1C(=O)C(c2c(C)cc(C)cc2C)=C(O)C12CCN(OC)CC2 [P2.6] |  |  |  |  |  |  | > 80% | > 80% | > 80% | > 80% | > 80% | > 80% | > 80% | > 80% | ≥ 80% |  |  |  |  |
| CCOCN1C(=O)C(c2c(C)cc(C)cc2C)=C(OC(=O)OCC)C12CCN(OC)CC2 [P1.4] |  |  |  |  |  |  |  |  | > 80% | > 80% | > 80% | > 80% | > 80% | > 80% | ≥ 80% |  |  |  |  |
| COCCOCN1C(=O)C(c2c(C)cc(C)cc2C)=C(O)C12CCN(OC)CC2 [P2.19] |  |  |  |  |  |  | > 80% | > 80% | > 80% | > 80% | > 80% | > 80% | > 80% | > 80% |  |  |  |  |  |
| CCOC(=O)OC1=C(c2c(C)cc(C)cc2C)C(=O)N(C)C12CCN(OC)CC2 [P1.2, Carbonic acid ethyl ester 8-methoxy-1-methyl-2-oxo-3-(2,4,6-trimethyl-phenyl)-1,8-diaza-spiro[4.5]dec-3-en-4-yl ester] | 98% | 98% | 100% | 98% | 98% | no damage at all | > 80% | > 80% | > 80% | > 80% | > 80% | > 80% | > 80% | > 80% | ≥ 80% | very similar to the action of the compound of the state of the art | 54% | 25% | enhance the insecticidal activity of compound P1.2 significantly |
